The values below come from US12590296B2, “Method of culturing immortalized human hepatic progenitors or cells” (INSERM (INSTITUT NATIONAL DE LA SANTÉ ET DE LA RECHERCHE …, priority 2019, dated 2026).

Data set [1] relates to HepaRG cells. The note with it: HepaRG cells in 3D GelMa culture, in the presence of U126 (16.4% in its absence); data not shown.
The test system of data set [2] is HuH-7 cells. Kind of data set: Cleaved caspase 3 (apoptosis) in HuH-7 cells in 3D GelMa culture. In kind it is cell-based, human. As to conditions: treatment at day 14, data not shown. The procedure: Cell laden 3D constructs were fixed in 4% formaldehyde, washed 3 times in PBS and stored at 4° C. until use or immediately suspended in a 0.12 M phosphate buffer containing 10% w/v saccharose and incubated overnight. They were embedded in a protective matrix composed of gelatin 7.5% w/v and 10% w/v saccharose, then frozen in isopentane and cryosectioned at a thickness of 7 μm. Slides were stained on the Discovery Automated IHC stainer using the discovery Rhodamin kit (Ventana Mediacl systems, Tucson, AZ, USA). The concentrations and references of the primary antibodies that were used can be found in Table 1 below. After rinsing, signal enhancement was performed using the Ventana Rhodamin kit and secondary antibody anti-rabbit HRP (760-4311, Roche) or secondary antibody anti-mouse HRP (760-4310, Roche) for 16 min of incubation. After removal from the instrument, slides were manually rinsed, stained when required with albumin antibody then a secondary antibody for albumin detection (Donkey anti goat 488), and mounted with Dapi Fluoromount-G.

Data set [3] deals with HepaRG cells. Kind of data set: SHG microscopy of fibrillar collagen, HepaRG cells alone in 3D GelMa. In kind it is cell-based, human. The note with it: HepaRG cells cultured alone in 3D GelMa, with or without treatment. The procedure:
(§1) TPEF/SHG microscopy imaging was performed on mRIC facility of Biosit, University of Rennes1 (France). The SHG imaging system is composed of a confocal TCS SP5 scanning head (Leica Microsystems, Mannheim, Germany) mounted on a DMIRE2 inverted microscope (Leica Microsystems) and equipped with a MAITAI femtosecond laser (Spectra Physics, Santa Clara, CA). 60× water immersion objective (Olympus LUMFL 60 W×1.1NA) was used for applying an 820 nm excitation to the sample. The SHG signal was collected in the forward direction using the condenser (S1, NA ¼ 0.9-1.4; Leica Microsystems), and the TPEF was epi-collected in the backward direction. IRSP 715 bandpass and 410 nm infrared (IR) filters (10 nm full width at half-maximum, FWHM) were placed before the photomultiplier tube. The image processing was performed with ImageJ software (National Institutes of Health).
(§2) SHG microscopy was used to visualize fibrillar collagen, mostly collagen-1 and -3. Briefly, SHG relies on the nonlinear optical interactions with […] fibrillar structures, such as collagen type I, allowing their detection and quantification in 3D tissues. […] For example, such culture is not suitable for the study of liver fibrosis.

Data set [4] has as its system HepaRG cells in coculture with LX-2 cells and HUVECs (CoC). Kind of data set: mRNA expression (RT-qPCR) in HepaRG + LX-2 + HUVECs coculture (CoC) in 3D GelMa. It is filed as cell-based, human. Here is the method: (§3) After 1, 2 and 4 week(s) of culture, 3D constructs comprising 3D cell structures were harvested, washed twice in PBS and total ribonucleic acid (RNA) was extracted using TRIzol™ reagent. The concentration of total RNA was measured with a NanoDrop ND-1000 (NanoDrop Technologies). Complementary deoxyribonucleic acid (cDNA) was synthetized using the High Capacity cDNA reverse transcriptase kit (Applied Biosystems Foster City, CA, USA), and real-time polymerase chain reaction (PCR) was performed using the Power SYBR Green PCR master mix (Applied Biosystems Foster City, CA, USA). Basic local alignment search tool (BLAST) was used to design primer sequences which were purchased from Eurogentec (Searing, BE). The expression levels of the target genes were normalized to those of GAPDH and determined by the ΔΔCt method. Final results were expressed as the n-fold difference in target gene expression in samples when compared with the mean expression values of the target gene for controls: either non-differentiated HepaRG (referred to as 2D) or HepaRG differentiated in standard 2D culture conditions (referred to as 2D DMSO). All results are presented as mean±SD of at least n=3 experiments.
(§4) For coculture constructs, the bioprinted 3D structure comprising HepaRG cells and LX-2 cells was cultured during a week, before being put in a low attachment plate containing 1×10^6 HUVECs per mL of medium.
The mRNA expression of hepatic genes (ALB, ALDOB, PPARA and SERPINA1) and of myofibroblastic transition genes and extracellular matrix remodeling genes (ACTA2, ADAMTS12, COL1A1, COL3A1, MMP2, MMP9 and TIMP1) was assessed at day 21 (i) in HepaRG alone in 3D GelMa culture, (ii) in HepaRG in 3D GelMa culture with LX-2 cells and HUVECs (CoC) and (iii) in HepaRG in 3D GelMa culture with LX-2 cells and HUVECs (CoC) activated with TGFβ-1 treatment for 7 days (FIGS. 16A-K). […] The albumin secretion of the HepaRG cells in coculture with the LX-2 cells and HUVECs (CoC) was also assessed and compared to that of HepaRG cells cultured alone (HepaRG) and bioprinted in GelMa matrix under the same conditions.

The subject of data set [5] is LX-2 cells. Nature of the data set: SHG microscopy of fibrillar collagen, LX-2 cells alone in 3D GelMa. It is filed as cell-based, human. The note with it: LX-2 cells cultured alone in 3D GelMa, after induction. The procedure:
as §1, §2

A further data set relates to HepaRG or HepaRG+HUVECs. Nature of the data set: Pro-collagen 1a1 secretion (ELISA) in HepaRG or HepaRG+HUVECs. The note with it: day 21. In kind it is cell-based, human. The procedure:
(§5) Medium samples were taken for the determination of albumin and urea content every 48 h. Secreted albumin and proCol1a1 (pro-collagen 1 alpha 1) were quantified using the human serum albumin Duoset Enzyme Linked Immunosorbent Assay (ELISA) kit (R&D systems, Minneapolis, MN, USA) and the human pro-Col1a1 Duoset Enzyme Linked Immunosorbent Assay kits (R&D systems, Minneapolis, MN, USA), according to manufacturer's instructions. Quantification was performed by measuring absorbance at 450 nm using a microplate reader (SpectrostarNano, BMG labtech, Champigny s/Marne, FR). Urea secretion in the medium was measured using a ChromaDazzle Urea Assay kit (AssayGenie, Dublin, IR) according to the manufacturer's protocol, using medium as standard and reading the absorbance at 420 nm (SpectrostarNano, BMG labtech, Champigny s/Marne, FR)

The test system of data set [6] is HepaRG cells in coculture with LX-2 cells and HUVECs (CoC). Kind of data set: Albumin, urea and pro-collagen 1a1 secretion in coculture (CoC). In kind it is cell-based, human. The procedure: as §5, §4
The test system is the same in data set [7]. Kind of data set: LDH release in coculture (CoC). It is filed as cell-based. As to conditions: 5 ng/mL every 48 h for 7 days. The procedure:
(§6) Cell viability was assessed by using the WST-1 (water soluble tetrazolium-1) proliferation assay on cell laden 3D constructs at different days or times of culture. Briefly, the cell laden 3D constructs were treated with 100 μL of WST-1 reagent and incubated 30 min at 37° C. Absorbance at 440 nm was read in a microplate reader (SpectrostarNano, BMG labtech, Champigny s/Marne, FR) and the values were converted into percentage of absorbance by comparison with controls assessed at day 0 or time 0. Measurement of lactate dehydrogenase (LDH) was performed on supernatants with the LDH-Glo™ Cytotoxicity Assay (Promega) by following manufacturer's instructions.

Data set [8] has as its system LX-2 cells. Nature of the data set: mRNA expression (RT-qPCR) in LX-2 cells in 3D GelMa culture. In kind it is cell-based, human. The note with it: 5 ng/mL every 48 h from day 2. Here is the method: as §3, with “Basic local alignment search tool (BLAST) was used to design primer sequences which were purchased from Eurogentec (Searing, BE).” left out, “All results are presented as mean±SD of at least n=3 experiments.” left out
First, the culture of LX-2 cells alone in 3D GelMa culture was assessed, with or without treatment with TGFβ-1, a classical pro-fibrotic cytokine (Czaja et al., J Cell Biol. 1989 June; 108(6):2477-82). […] Then, the mRNA expression of ACTA2, ADAMTS12, LPL, COL1A1, MMP2, TGFβ-1 and TIMP1 was assessed in LX-2 cells in 3D GelMa culture, stimulated or not by TGFβ-1 (FIGS. 14A-G, respectively). […]

Data set [9] is classed as physicochemical. The procedure:
The physical properties of different methacrylated gelatin matrices (GelMa matrices) were analyzed by assessing the polymerization and bioprinting properties of the matrices as a function of the GelMa concentration, the photoinitiator LAP concentration and the illumination time at 405 nm (FIG. 1). As shown on FIG. 1A, at 20° C. a concentration of GelMa of 2.5% was not sufficient to ensure a proper polymerization of the matrix and subsequently, an optimal viscosity for the bioprinting process. As shown on FIG. 1B, a minimum concentration of LAP (i.e., 0.1% (w/v)) and an optimized illumination time (i.e., 60 seconds) were defined to reduce the phototoxicity and the production of excess free radicals while maintaining sufficient structural integrity of the printed GelMa for 28 days at 37° C. As shown on FIGS. 1C-D, weight loss of the matrices was assessed as a function of the photoinitiator LAP concentration (either 0.1% (w/v) on FIG. 1C or 0.3% (w/v) on FIG. 1D) and the illumination time at 405 nm. A rapid decrease of the matrix weight, of up to about 40%, was observed 5 hours after the polymerization process (FIG. 1C-D). Then, a constant weight for at least 28 days was observed, indicating a good stability of the matrix in the culture medium at 37° C. (FIGS. 1C-D). […]

The test system of data set [10] is HuH-7 cells. It is filed as cell-based, human. Here is the method:
as §6

Setting [11] is: CoC, day 21, 5 ng/mL every 48 h for 7 days.

“Also recorded” adds a separate entry of the source.

Take `N#CC(=C(/N)Sc1ccccc1N)/C(C#N)=C(/N)Sc1ccccc1N` [U126]: the EdU positive cells in the data set with HepaRG cells [1] stood at 0.9%.

With `N.N.[Cl][Pt][Cl]` [cisplatin], the “response of the cells to an apoptotic inducer (caspase 3)” value in the data set with HuH-7 cells [2] was “responded well”.

For “TGFβ-1: a classical pro-fibrotic cytokine”, the “collagen deposition (SHG microscopy)” value in the data set on HepaRG cells [3] is recorded as “No collagen deposition”. Also, in data set [4] (setting [11]), the “expression of genes involved in ECM homeostasis (ACTA2, ADAMTS12, COL1A1, COL3A1, MMP2, MMP9 and TIMP1)” value is listed as “increase”. Also, in [4] (setting [11]), the “hepatic gene mRNA expression (ALB, ALDOB, PPARA and SERPINA1)” value is “decrease”. In data set [4] (HepaRG alone, HepaRG+HUVECs and CoC (all three conditions)), the COL1A1 expression result is listed as “significant increase”. For the same compound, the “collagen fibrils (SHG microscopy)” value with LX-2 cells [5] is on record as “Very few collagen fibrils or no collagen fibrils at all; also recorded: no collagen fibrils were ever observed”. Besides, the “pro-collagen 1a1 secretion” value in the data set on HepaRG or HepaRG+HUVECs is reported as “significatively induces its secretion”; in data set [6] (HepaRG+LX-2+HUVECs (CoC), day 21) it was “no significant increase”. In addition, the albumin secretion result in [6] (CoC, 5 ng/mL every 48 h for 7 days) is listed as “decrease”. In addition, the urea secretion result in data set [6] (CoC, over the 21 days of culture, with or without treatment, data not shown) is “remained stable”. Further, the “release of LDH (a cell death marker) in the medium” value in data set [7] is given as “no specific release”. Also, in the data set on LX-2 cells [8], the “mRNA expression of ACTA2, COL1A1, MMP2 and TIMP1” value is reported as “clearly increased in a time-dependent manner”.

As for methacrylated gelatin [GelMa], the “constant weight (stability of the matrix in the culture medium)” value in data set [9] is on record as “at least 28 days”. Also, the “HuH-7 cell viability (WST-1 proliferation assay)” value with HuH-7 cells [10] is “no decrease”.
